Test results published in ChEMBL document CHEMBL3885861, “Open TG-GATES”.

Species: Rattus norvegicus
Test: Open TG-GATES - Regimen: Daily Repeat
Format: toxicity, organism-based, Sprague-Dawley
Parameters: regimen Daily Repeat, gender Male, age 6 weeks
Settings: in vivo, po, route gavage; for APTT / Bas / Eos / Fbg / Hb / Ht / Lym / MCH / MCHC / MCV / Mono / Neu / PT / Plat / RBC / Ret / WBC: tissue Blood; for KIDNEY_L / KIDNEY_R / KIDNEY_TOTAL: tissue Kidney; for LIVER: tissue Liver; for A/G / ALP / ALT / AST / BUN / CRE / Ca / Cl / DBIL / GLC / IP / K / LDH / Na / PL / RALB / TBIL / TC / TG / TP / gamma-GTP: tissue Plasma
[1] = 0 mg/kg, 72 h, dose level Control, time 3 day
[2] = 0 mg/kg, […], dose level Control, time 7 day
[3] = 0 mg/kg, […], dose level Control, time 14 day
[4] = 0 mg/kg, […], dose level Control, time 28 day
[5] = 100 mg/kg, 72 h, dose level Low, time 3 day
[6] = 100 mg/kg, […], dose level Low, time 7 day
[7] = 100 mg/kg, […], dose level Low, time 14 day
[8] = 100 mg/kg, […], dose level Low, time 28 day

## CCOc1ccc(NC(=O)CC(C)O)cc1 (centres undefined) [BUCETIN]
[1]
  TERMINAL_BW: 249.6 g
  APTT: 17.8 s
  Bas: 0%
  Eos: 1%
  Fbg: 305.2 mg/dL
  Hb: 13.4 g/dL
  Ht: 40.2%
  Lym: 73.4%
  MCH: 21.3 pg
  MCHC: 33.3%
  MCV: 64.1 fL
  Mono: 3%
  Neu: 22%
  PT: 14 s
  Plat: 120.3 x10_4/uL
  RBC: 627 x10_4/ul
  Ret: 7.2%
  WBC: 91.6 x10_2/uL
  KIDNEY_L: 1.1 g
  KIDNEY_R: 1.1 g
  KIDNEY_TOTAL: 2.1 g
  LIVER: 11.9 g
  A/G: 0.8
  ALP: 1726.4 IU/L
  ALT: 33.8 IU/L
  AST: 66.8 IU/L
  BUN: 14.8 mg/dL
  CRE: 0.2 mg/dL
  Ca: 11 mg/dL
  Cl: 105.4 meq/L
  DBIL: 0.02 mg/dL
  GLC: 179 mg/dL
  IP: 7.5 mg/dL
  K: 4.1 meq/L
  LDH: 67.2 IU/L
  Na: 144 meq/L
  PL: 165.2 mg/dL
  RALB: 2.7 g/dL
  TBIL: 0.048 mg/dL
  TC: 82.4 mg/dL
  TG: 104.6 mg/dL
  TP: 5.9 g/dL
  gamma-GTP: 1.2 IU/L
[2]
  TERMINAL_BW: 287 g
  APTT: 16.5 s
  Bas: 0%
  Eos: 1.2%
  Fbg: 262.4 mg/dL
  Hb: 13.5 g/dL
  Ht: 40%
  Lym: 81.2%
  MCH: 20.7 pg
  MCHC: 33.7%
  MCV: 61.5 fL
  Mono: 2.6%
  Neu: 14.4%
  PT: 13.9 s
  Plat: 112.2 x10_4/uL
  RBC: 651 x10_4/ul
  Ret: 6.3%
  WBC: 93.2 x10_2/uL
  KIDNEY_L: 1.2 g
  KIDNEY_R: 1.1 g
  KIDNEY_TOTAL: 2.3 g
  LIVER: 13.2 g
  A/G: 0.8
  ALP: 1795.8 IU/L
  ALT: 32.2 IU/L
  AST: 65.6 IU/L
  BUN: 15.4 mg/dL
  CRE: 0.2 mg/dL
  Ca: 11 mg/dL
  Cl: 105.2 meq/L
  DBIL: 0.018 mg/dL
  GLC: 185 mg/dL
  IP: 7.3 mg/dL
  K: 4 meq/L
  LDH: 95.2 IU/L
  Na: 142.6 meq/L
  PL: 166.6 mg/dL
  RALB: 2.6 g/dL
  TBIL: 0.038 mg/dL
  TC: 77.8 mg/dL
  TG: 144 mg/dL
  TP: 5.8 g/dL
  gamma-GTP: 1 IU/L
[3]
  TERMINAL_BW: 375 g
  APTT: 17.7 s
  Bas: 0.2%
  Eos: 1%
  Fbg: 321.4 mg/dL
  Hb: 14 g/dL
  Ht: 41.7%
  Lym: 75.8%
  MCH: 20.2 pg
  MCHC: 33.6%
  MCV: 60.2 fL
  Mono: 2.4%
  Neu: 20.4%
  PT: 13.8 s
  Plat: 127.4 x10_4/uL
  RBC: 694 x10_4/ul
  Ret: 4.6%
  WBC: 121.6 x10_2/uL
  KIDNEY_L: 1.5 g
  KIDNEY_R: 1.3 g
  KIDNEY_TOTAL: 2.8 g
  LIVER: 17.3 g
  A/G: 0.8
  ALP: 1354.4 IU/L
  ALT: 33 IU/L
  AST: 60.8 IU/L
  BUN: 16 mg/dL
  CRE: 0.2 mg/dL
  Ca: 11.1 mg/dL
  Cl: 104.4 meq/L
  DBIL: 0.02 mg/dL
  GLC: 188.8 mg/dL
  IP: 7.4 mg/dL
  K: 3.9 meq/L
  LDH: 97.4 IU/L
  Na: 144.8 meq/L
  PL: 170.2 mg/dL
  RALB: 2.8 g/dL
  TBIL: 0.05 mg/dL
  TC: 81 mg/dL
  TG: 160.8 mg/dL
  TP: 6.3 g/dL
  gamma-GTP: 1.2 IU/L
[4]
  TERMINAL_BW: 420.9 g
  APTT: 18.6 s
  Bas: 0.2%
  Eos: 1.2%
  Fbg: 296.4 mg/dL
  Hb: 15.3 g/dL
  Ht: 44%
  Lym: 79.4%
  MCH: 19.7 pg
  MCHC: 34.9%
  MCV: 56.5 fL
  Mono: 2.2%
  Neu: 16.6%
  PT: 13.9 s
  Plat: 99.2 x10_4/uL
  RBC: 778.4 x10_4/ul
  Ret: 2.7%
  WBC: 100.2 x10_2/uL
  KIDNEY_L: 1.4 g
  KIDNEY_R: 1.4 g
  KIDNEY_TOTAL: 2.9 g
  LIVER: 16.3 g
  A/G: 0.8
  ALP: 1201 IU/L
  ALT: 30.8 IU/L
  AST: 62.4 IU/L
  BUN: 15.2 mg/dL
  CRE: 0.3 mg/dL
  Ca: 11 mg/dL
  Cl: 105.8 meq/L
  DBIL: 0.022 mg/dL
  GLC: 188.6 mg/dL
  IP: 5.8 mg/dL
  K: 3.9 meq/L
  LDH: 69.6 IU/L
  Na: 145.4 meq/L
  PL: 146.2 mg/dL
  RALB: 2.8 g/dL
  TBIL: 0.058 mg/dL
  TC: 65.4 mg/dL
  TG: 155.6 mg/dL
  TP: 6.3 g/dL
  gamma-GTP: 2 IU/L
[5]
  TERMINAL_BW: 249.8 g
  APTT: 17.5 s
  Bas: 0%
  Eos: 0.8%
  Fbg: 309.6 mg/dL
  Hb: 13.8 g/dL
  Ht: 41.5%
  Lym: 76.4%
  MCH: 21.2 pg
  MCHC: 33.2%
  MCV: 63.9 fL
  Mono: 3.4%
  Neu: 18.8%
  PT: 14.1 s
  Plat: 126.2 x10_4/uL
  RBC: 650.6 x10_4/ul
  Ret: 6.9%
  WBC: 79.2 x10_2/uL
  KIDNEY_L: 1 g
  KIDNEY_R: 1.1 g
  KIDNEY_TOTAL: 2.1 g
  LIVER: 12.1 g
  A/G: 0.9
  ALP: 1621.2 IU/L
  ALT: 35.2 IU/L
  AST: 62.4 IU/L
  BUN: 14.4 mg/dL
  CRE: 0.2 mg/dL
  Ca: 11 mg/dL
  Cl: 105.6 meq/L
  DBIL: 0.02 mg/dL
  GLC: 188.4 mg/dL
  IP: 7.6 mg/dL
  K: 4.2 meq/L
  LDH: 76.6 IU/L
  Na: 143 meq/L
  PL: 163.8 mg/dL
  RALB: 2.7 g/dL
  TBIL: 0.044 mg/dL
  TC: 82 mg/dL
  TG: 116.4 mg/dL
  TP: 5.9 g/dL
  gamma-GTP: 1 IU/L
[6]
  TERMINAL_BW: 303 g
  APTT: 17.7 s
  Bas: 0%
  Eos: 0.8%
  Fbg: 276.6 mg/dL
  Hb: 13.4 g/dL
  Ht: 40.1%
  Lym: 77.8%
  MCH: 20.5 pg
  MCHC: 33.5%
  MCV: 61.2 fL
  Mono: 2.8%
  Neu: 17.6%
  PT: 14 s
  Plat: 121.8 x10_4/uL
  RBC: 655.4 x10_4/ul
  Ret: 5.8%
  WBC: 116.6 x10_2/uL
  KIDNEY_L: 1.3 g
  KIDNEY_R: 1.3 g
  KIDNEY_TOTAL: 2.5 g
  LIVER: 14.8 g
  A/G: 0.8
  ALP: 1437.2 IU/L
  ALT: 42.8 IU/L
  AST: 69.6 IU/L
  BUN: 15.8 mg/dL
  CRE: 0.2 mg/dL
  Ca: 11 mg/dL
  Cl: 105 meq/L
  DBIL: 0.022 mg/dL
  GLC: 188.4 mg/dL
  IP: 7.3 mg/dL
  K: 4.2 meq/L
  LDH: 103.8 IU/L
  Na: 144.4 meq/L
  PL: 172.8 mg/dL
  RALB: 2.7 g/dL
  TBIL: 0.04 mg/dL
  TC: 80.6 mg/dL
  TG: 143 mg/dL
  TP: 6 g/dL
  gamma-GTP: 1.2 IU/L
[7]
  TERMINAL_BW: 338.2 g
  APTT: 19.2 s
  Bas: 0%
  Eos: 0.8%
  Fbg: 287.8 mg/dL
  Hb: 14.6 g/dL
  Ht: 43.2%
  Lym: 74.6%
  MCH: 20.1 pg
  MCHC: 33.9%
  MCV: 59.3 fL
  Mono: 2.4%
  Neu: 21.4%
  PT: 13.9 s
  Plat: 116.5 x10_4/uL
  RBC: 729.2 x10_4/ul
  Ret: 4.1%
  WBC: 86.9 x10_2/uL
  KIDNEY_L: 1.3 g
  KIDNEY_R: 1.2 g
  KIDNEY_TOTAL: 2.5 g
  LIVER: 14.9 g
  A/G: 0.8
  ALP: 1590.2 IU/L
  ALT: 34.4 IU/L
  AST: 62.6 IU/L
  BUN: 14.6 mg/dL
  CRE: 0.2 mg/dL
  Ca: 11.1 mg/dL
  Cl: 105.8 meq/L
  DBIL: 0.02 mg/dL
  GLC: 191 mg/dL
  IP: 7.4 mg/dL
  K: 3.8 meq/L
  LDH: 77.4 IU/L
  Na: 145.2 meq/L
  PL: 159.2 mg/dL
  RALB: 2.8 g/dL
  TBIL: 0.06 mg/dL
  TC: 71.2 mg/dL
  TG: 145 mg/dL
  TP: 6.1 g/dL
  gamma-GTP: 1.2 IU/L
[8]
  TERMINAL_BW: 405.9 g
  APTT: 17.9 s
  Bas: 0.2%
  Eos: 1%
  Fbg: 280.4 mg/dL
  Hb: 15.6 g/dL
  Ht: 44.9%
  Lym: 81%
  MCH: 19.5 pg
  MCHC: 34.9%
  MCV: 55.9 fL
  Mono: 2%
  Neu: 15%
  PT: 14.1 s
  Plat: 114.4 x10_4/uL
  RBC: 802.8 x10_4/ul
  Ret: 2.5%
  WBC: 132 x10_2/uL
  KIDNEY_L: 1.4 g
  KIDNEY_R: 1.4 g
  KIDNEY_TOTAL: 2.9 g
  LIVER: 16.3 g
  A/G: 0.8
  ALP: 1115.2 IU/L
  ALT: 32.6 IU/L
  AST: 64.6 IU/L
  BUN: 15.8 mg/dL
  CRE: 0.3 mg/dL
  Ca: 11 mg/dL
  Cl: 104.8 meq/L
  DBIL: 0.022 mg/dL
  GLC: 188.6 mg/dL
  IP: 5.9 mg/dL
  K: 3.9 meq/L
  LDH: 82.8 IU/L
  Na: 145.2 meq/L
  PL: 155 mg/dL
  RALB: 2.9 g/dL
  TBIL: 0.06 mg/dL
  TC: 70.4 mg/dL
  TG: 145 mg/dL
  TP: 6.4 g/dL
  gamma-GTP: 1.4 IU/L
